From the supplement of paper PMC13380429
± gives the standard deviation of the averaged measurements.

What was measured:
Conditions in all cases: 72 h
Vero E6 [1] = experiment: drug sensitivity score (DSS) for viability; higher = more toxic; extreme values may be limits of the assay
Caco-2 [2] = experiment: as above
HepG2 [3] = experiment: as above
Calu-3 [4] = experiment: as above
U2OS [5] = experiment: as above
Vero E6 [6] = experiment: cell viability relative to DMSO; higher = less toxic
Caco-2 [7] = experiment: as above
HepG2 [8] = experiment: as above
Calu-3 [9] = experiment: as above
U2OS [10] = experiment: as above
Vero E6 [11] = experiment: relative viability EC50 (midpoint between 100% and the lowest measured viability); higher = less toxic
Caco-2 [12] = experiment: as above
HepG2 [13] = experiment: as above
Calu-3 [14] = experiment: as above
U2OS [15] = experiment: as above

SMILES	drug sensitivity score (Vero E6 [1])	drug sensitivity score (Caco-2 [2])	drug sensitivity score (HepG2 [3])	drug sensitivity score (Calu-3 [4])	drug sensitivity score (U2OS [5])	cell viability (Vero E6 [6]; 1 nM)	cell viability (Vero E6 [6]; 10 nM)	cell viability (Vero E6 [6]; 100 nM)	cell viability (Vero E6 [6]; 1000 nM)	cell viability (Vero E6 [6]; 10000 nM)	cell viability (Caco-2 [7]; 1 nM)	cell viability (Caco-2 [7]; 10 nM)	cell viability (Caco-2 [7]; 100 nM)	cell viability (Caco-2 [7]; 1000 nM)	cell viability (Caco-2 [7]; 10000 nM)	cell viability (HepG2 [8]; 1 nM)	cell viability (HepG2 [8]; 10 nM)	cell viability (HepG2 [8]; 100 nM)	cell viability (HepG2 [8]; 1000 nM)	cell viability (HepG2 [8]; 10000 nM)	cell viability (Calu-3 [9]; 1 nM)	cell viability (Calu-3 [9]; 10 nM)	cell viability (Calu-3 [9]; 100 nM)	cell viability (Calu-3 [9]; 1000 nM)	cell viability (Calu-3 [9]; 10000 nM)	cell viability (U2OS [10]; 1 nM)	cell viability (U2OS [10]; 10 nM)	cell viability (U2OS [10]; 100 nM)	cell viability (U2OS [10]; 1000 nM)	cell viability (U2OS [10]; 10000 nM)	relative viability EC50 (Vero E6 [11])	relative viability EC50 (Caco-2 [12])	relative viability EC50 (HepG2 [13])	relative viability EC50 (Calu-3 [14])	relative viability EC50 (U2OS [15])
Nc1ncnc2c1ncn2[C@@H]1O[C@H](CO)[C@@H](O)[C@H]1O [adenosine]	0	0	0.1 ± 0.14	0	0	102.5 ± 0.99%	102 ± 2.3%	97.3 ± 3.5%	103.5 ± 0.35%	99.95 ± 0.35%	103 ± 2.4%	100 ± 4.7%	97.9 ± 1.8%	94.5 ± 1.1%	95.2 ± 8.6%	98.05 ± 0.21%	102 ± 6.9%	96.7 ± 6.6%	110 ± 9.2%	88 ± 9.1%	107%	88.4%	96.3%	96.1%	95.2%	102 ± 1.8%	98 ± 3%	98.2 ± 3.2%	98.5 ± 2.2%	104 ± 5.9%	> 10 µM	> 10 µM	> 10 µM	> 10 µM	> 10 µM
CN1C(=O)CC(c2ccccc2)C1=O (stereo not given) [phensuximide]	0	0	0	0	0	104%	103%	99.5%	103%	98.3%	99.3%	102%	97.2%	90.9%	103%	108%	110%	96.4%	98.3%	98.9%	100%	108%	107%	99.1%	103%	96.2%	99.8%	100%	98.3%	106%	> 10 µM	> 10 µM	> 10 µM	> 10 µM	> 10 µM
CCc1cc(Cl)c(OC)c(C(=O)NC[C@@H]2CCCN2CC)c1O [eticlopride]	0	0.1	0	0	0	107%	102%	106%	102%	94.7%	102%	101%	92.5%	103%	87%	115%	108%	121%	106%	91.4%	105%	102%	103%	99.9%	98.5%	99.1%	106%	96.3%	103%	94.8%	> 10 µM	> 10 µM	> 10 µM	> 10 µM	> 10 µM
OCC(Br)(Br)Br [tribromoethanol]	0	0	0.5	0	0	106%	96.3%	108%	87.7%	99.9%	81.4%	116%	92.7%	98.8%	107%	99.3%	102%	102%	97%	85.4%	91.4%	95.9%	98.3%	106%	94.2%	95.3%	98.3%	96.7%	98.8%	101%	> 10 µM	> 10 µM	> 10 µM	> 10 µM	> 10 µM
CCOc1nc2cccc(C(=O)OC(C)OC(=O)OC3CCCCC3)c2n1Cc1ccc(-c2ccccc2-c2nn[nH]n2)cc1 (stereo not given) [candesartan-cilexetil]	0	0.1	0	0	0	107%	106%	109%	104%	99.1%	95.6%	100%	91.4%	101%	86.5%	98.3%	103%	104%	102%	100%	93.1%	105%	99.5%	105%	105%	93.7%	106%	93.6%	90.9%	92.7%	> 10 µM	> 10 µM	> 10 µM	> 10 µM	> 10 µM
N#Cc1cc(NC(=O)C(=O)O)c(Cl)c(NC(=O)C(=O)O)c1 [lodoxamide]	0	0	0	0	0	101%	99.9%	98.6%	97.8%	93.8%	106%	119%	99.8%	118%	128%	102%	107%	92.7%	93.3%	93.6%	109%	100%	92.1%	96.4%	99.4%	104%	102%	97.2%	102%	98.1%	> 10 µM	> 10 µM	> 10 µM	> 10 µM	> 10 µM
OC[C@H]1O[C@@H](c2ccc(F)c(Cc3cc4ccccc4s3)c2)[C@H](O)[C@@H](O)[C@@H]1O [ipragliflozin-L-proline]	0	0	0	0	0	110%	104%	105%	99.4%	103%	108%	99.8%	100%	101%	100%	108%	101%	105%	96.3%	111%	92.4%	108%	98%	110%	100%	99.2%	98.7%	99.4%	104%	99%	> 10 µM	> 10 µM	> 10 µM	> 10 µM	> 10 µM
CC1=CC(=O)c2ccccc2C1=O [menadione]	0	0	0	0	0	104%	104%	99.9%	102%	95.1%	100%	103%	100%	104%	94.2%	102%	100%	116%	106%	99%	95.8%	104%	112%	97.9%	106%	95.4%	101%	96.4%	99.7%	93.1%	> 10 µM	> 10 µM	> 10 µM	> 10 µM	> 10 µM
CC(C)c1ccccc1Cc1cc(C(=O)Nc2ccc(S(=O)(=O)c3ccccc3C(C)(C)C)cc2)c(O)c(O)c1O [TW-37]	12	13.1	10.6	6.2	13	92.1%	102%	96.1%	43.2%	7.7%	88.7%	89.7%	93.5%	36.7%	9.2%	98.8%	98.6%	96.1%	49.6%	20.3%	107%	98.1%	107%	86%	28.8%	102%	94.7%	95.7%	36.5%	4.6%	0.746 µM	0.557 µM	0.704 µM	1.75 µM	0.654 µM
CCCCCCCCCCCCCCCC(=O)C(F)(F)F [PACOCF3]	0	0	0	0	0	101%	101%	96.6%	102%	101%	101%	98.6%	104%	92.3%	96.8%	99.6%	108%	102%	104%	105%	99.6%	93.5%	91.2%	83.2%	102%	107%	103%	106%	97.2%	102%	> 10 µM	> 10 µM	> 10 µM	> 10 µM	> 10 µM
CCN(CC)C(=O)N1CCN(C)CC1 [diethylcarbamazine]	0	0	0	0	0	103%	97.5%	102%	103%	99.3%	98.2%	95.4%	97.2%	88.5%	99.9%	88.1%	100%	105%	101%	107%	102%	91.4%	103%	103%	102%	103%	97.8%	102%	91.4%	98.1%	> 10 µM	> 10 µM	> 10 µM	> 10 µM	> 10 µM
CCOCCn1c(N2CCCN(C)CC2)nc2ccccc21 [emedastine]	0	0	0	0	0	99.1%	105%	100%	98.4%	99.8%	97.3%	102%	102%	95.4%	91.2%	89%	98.4%	92.7%	101%	107%	94.2%	101%	99.3%	112%	106%	97.4%	96.3%	93%	98.4%	96%	> 10 µM	> 10 µM	> 10 µM	> 10 µM	> 10 µM
CC(C)N1Cc2cc(S(C)(=O)=O)ccc2N(CCN2CC=C(c3c[nH]c4cc(F)ccc34)CC2)S1(=O)=O	0	0	0	0	0	89.6%	97.7%	94.1%	94.7%	97.6%	98.3%	98.8%	102%	91.2%	104%	99.9%	107%	95.8%	105%	100%	98.6%	99.3%	92.7%	107%	110%	99.9%	99.1%	103%	95.8%	95.2%	> 10 µM	> 10 µM	> 10 µM	> 10 µM	> 10 µM
CCCCCCCCCCCCCCCCCCCCCCO [docosanol]	0	0.2	0.7	0	0	108%	98.4%	98.2%	88.4%	104%	95.8%	92.2%	99.5%	116%	82.1%	104%	100%	104%	93.2%	85.1%	87.6%	97.6%	96.4%	102%	96.5%	92.3%	96.2%	94.6%	98.6%	105%	> 10 µM	> 10 µM	> 10 µM	> 10 µM	> 10 µM
